ChEMBL document CHEMBL4414648, “Novel Benzohydroxamate-Based Potent and Selective Histone Deacetylase 6 (HDAC6) Inhibitors Bearing a Pentaheterocyclic Scaffold: Design, Synthesis, and Biological Evaluation” (J Med Chem, 2019)
pIC50: −log10 of the molar value.

Assays:
[1] = Selectivity ratio of IC50 for C-terminal His-tagged human HDAC8 expressed in baculovirus infected sf9 insect cells to IC50 for human N-terminal GST-tagged HDAC6 expressed in baculovirus infected sf9 insect cells
[2] = Selectivity ratio of IC50 for human HDAC4 expressed in baculovirus infected sf9 insect cells to IC50 for human N-terminal GST-tagged HDAC6 expressed in baculovirus infected sf9 insect cells
[3] = Stability in rat liver S9 fraction assessed as parent compound remaining at 5 uM after 90 mins in presence of NADPH by LC-MS/MS analysis; format: ADME, subcellular; conditions: read-out: Stability
PBMC = assay: Cytotoxicity against human PBMC cells after 72 hrs by CellTiter 96 aqueous one solution assay; format: cell-based
697 = assay: Cytotoxicity against human 697 cells after 48 hrs by CellTiter 96 aqueous one solution assay; format: cell-based; conditions: Homo sapiens, 697, 48 h
Histone deacetylase = assay: Inhibition of HDAC in human 697 cells assessed as increase in H3 acetylation at 1000 nM incubated for 16 hrs by ELISA; format: cell-based; conditions: human, 697, 16 h, 1 µM
[4] = Stability in human liver S9 fraction assessed as parent compound remaining at 5 uM after 90 mins in presence of NADPH by LC-MS/MS analysis; format: ADME, subcellular; conditions: read-out: Stability
[5] = Selectivity ratio of IC50 for N-terminal GST-tagged human HDAC7 (518 to end residues) expressed in baculovirus infected sf9 insect cells to IC50 for human N-terminal GST-tagged HDAC6 expressed in baculovirus infected sf9 insect cells
[6] = Selectivity ratio of IC50 for N-terminal Flag-tagged human HDAC10 (2 to 631 residues) expressed in baculovirus infected sf9 insect cells to IC50 for human N-terminal GST-tagged HDAC6 expressed in baculovirus infected sf9 insect cells
[7] = Selectivity ratio of IC50 for C-terminal His-tagged human HDAC9 (604 to 1066 residues) expressed in baculovirus infected sf9 insect cells to IC50 for human N-terminal GST-tagged HDAC6 expressed in baculovirus infected sf9 insect cells
[8] = Stability in human plasma assessed as parent compound remaining at 100 uM after 4 hrs by LC-MS/MS analysis; format: ADME, cell-free; conditions: read-out: Stability
[9] = Stability in rat plasma assessed as parent compound remaining at 100 uM after 4 hrs by LC-MS/MS analysis; format: ADME, cell-free; conditions: read-out: Stability
[10] = Selectivity ratio of IC50 for C-terminal GST-tagged human HDAC5 to IC50 for human N-terminal GST-tagged HDAC6 expressed in baculovirus infected sf9 insect cells
[11] = Selectivity ratio of IC50 for N-terminal His-tagged human HDAC11 expressed in baculovirus expression system to IC50 for human N-terminal GST-tagged HDAC6 expressed in baculovirus infected sf9 insect cells
[12] = target: T1, Protein deacetylase HDAC6 (Homo sapiens, UniProt Q9UBN7); assay: biochemical
T1 sequence (Q9UBN7 whole entry): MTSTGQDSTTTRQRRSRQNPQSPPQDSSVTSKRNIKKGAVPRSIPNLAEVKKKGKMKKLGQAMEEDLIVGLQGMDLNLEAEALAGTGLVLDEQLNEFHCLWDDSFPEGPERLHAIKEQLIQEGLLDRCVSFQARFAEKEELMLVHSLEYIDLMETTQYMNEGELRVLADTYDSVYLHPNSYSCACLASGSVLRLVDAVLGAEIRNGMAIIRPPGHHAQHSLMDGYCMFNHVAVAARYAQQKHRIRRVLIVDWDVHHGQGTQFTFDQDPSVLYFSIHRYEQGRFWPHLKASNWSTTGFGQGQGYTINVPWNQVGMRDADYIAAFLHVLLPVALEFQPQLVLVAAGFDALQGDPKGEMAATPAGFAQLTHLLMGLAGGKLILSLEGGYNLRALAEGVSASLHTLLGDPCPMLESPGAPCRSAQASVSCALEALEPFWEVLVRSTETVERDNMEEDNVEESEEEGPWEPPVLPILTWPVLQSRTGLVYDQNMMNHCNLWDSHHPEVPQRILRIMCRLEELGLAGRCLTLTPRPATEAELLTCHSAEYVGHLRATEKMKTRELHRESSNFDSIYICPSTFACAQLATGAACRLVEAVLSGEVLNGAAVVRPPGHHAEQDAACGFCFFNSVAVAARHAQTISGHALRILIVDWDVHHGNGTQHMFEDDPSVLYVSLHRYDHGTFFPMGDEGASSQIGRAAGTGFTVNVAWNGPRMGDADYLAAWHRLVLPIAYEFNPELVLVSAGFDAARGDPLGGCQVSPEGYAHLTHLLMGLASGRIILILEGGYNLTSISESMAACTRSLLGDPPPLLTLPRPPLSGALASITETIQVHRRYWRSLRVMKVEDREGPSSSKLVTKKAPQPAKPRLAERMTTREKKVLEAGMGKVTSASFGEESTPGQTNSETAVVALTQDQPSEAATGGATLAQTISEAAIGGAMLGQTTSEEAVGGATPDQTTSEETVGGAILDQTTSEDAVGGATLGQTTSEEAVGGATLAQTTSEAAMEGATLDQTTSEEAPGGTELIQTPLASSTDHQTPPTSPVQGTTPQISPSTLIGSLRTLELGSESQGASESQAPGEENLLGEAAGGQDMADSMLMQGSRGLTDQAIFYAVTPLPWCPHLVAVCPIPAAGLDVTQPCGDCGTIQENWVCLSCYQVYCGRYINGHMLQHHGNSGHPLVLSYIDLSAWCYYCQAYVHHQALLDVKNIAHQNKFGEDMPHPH
Description: Inhibition of recombinant full length human N-terminal GST-tagged HDAC6 expressed in baculovirus infected sf9 insect cells pretreated with compound followed by Fluor de Lys deacetylase substrate addition by fluorescence method

Row | Compound | remaining at […], 5 µM [3] | pIC50 (PBMC) | pIC50 697 | remaining at […], 5 µM [4] | remaining at 4 h, 100 µM [8] | remaining at 4 h, 100 µM [9] | pIC50 [12] | further results
1 | Cn1c(Sc2c(F)cc(C(=O)NO)cc2F)nnc1-c1cccs1 | 71% | < 6.00 | < 6.00 | 83% | 99% | 87% |  | Ratio IC50 [1]: 21; Ratio IC50 [2]: 155; inhibition (INH) (Histone deacetylase): Active; Ratio IC50 [5]: 61; Ratio IC50 [6]: 763; Ratio IC50 [7]: 55; Ratio IC50 [10]: 171; Ratio IC50 [11]: 254
2 | O=C(NO)c1ccc(Nc2nnc(-c3ccccc3)s2)cc1 |  |  |  |  |  |  | 7.18 | 
3 | Cn1c(Sc2c(F)cc(C(=O)NO)cc2F)nnc1-c1ccc(CN2CCCCC2)cc1 | 74% | < 6.00 | < 6.00 | 69% | 90% | 75% |  | Ratio IC50 [1]: 32; Ratio IC50 [2]: 126; Ratio IC50 [5]: 83; Ratio IC50 [6]: 814; Ratio IC50 [7]: 36; Ratio IC50 [10]: 101; Ratio IC50 [11]: 342
4 | O=C(NO)c1cc(F)c(Cn2nnc(-c3ncccn3)n2)c(F)c1 | 96% | < 6.00 | < 6.00 | 89% | 93% | 78% |  | 
5 | CCN(CC)Cc1ccc2cc(COC(=O)Nc3ccc(C(=O)NO)cc3)ccc2c1 [GIVINOSTAT] | 6% | 6.50 | 7.00 | 83% | 97% | 72% |  | 
6 | O=C(NO)c1cc(F)c(Cn2nnc(-c3ccco3)n2)c(F)c1 | 68% | < 6.00 | < 6.00 | 94% | 100% | 100% | 8.52 | Ratio IC50 [1]: 210; Ratio IC50 [2]: 219; inhibition (INH) (Histone deacetylase): Active; Ratio IC50 [5]: 330; Ratio IC50 [6]: 876; Ratio IC50 [7]: 192; Ratio IC50 [10]: 194; Ratio IC50 [11]: 259
7 | O=C(NO)c1cc(F)c(Cc2nnc(-c3ccncc3)s2)c(F)c1 | 32% | < 6.00 | < 6.00 | 68% | 93% | 84% |  | Ratio IC50 [1]: 139; Ratio IC50 [2]: 101; inhibition (INH) (Histone deacetylase): Active; Ratio IC50 [5]: 77; Ratio IC50 [6]: 507; Ratio IC50 [7]: 44; Ratio IC50 [10]: 67; Ratio IC50 [11]: 291
8 | O=C(NO)c1ccc(Cc2nnc(-c3ccccc3)s2)cc1 |  |  |  |  |  |  | 7.80 | 
9 | CN1CCc2c(c3ccccc3n2Cc2ccc(C(=O)NO)cc2)C1 [TUBASTATIN A] |  |  | 5.70 |  | 98% | 38% |  | 
10 | COc1ccc(CC(=O)N[C@@H](Cc2cscn2)C(=O)Nc2ccc(C(=O)NO)cc2)cc1OC |  |  | < 5.00 |  | 100% | 18% | 8.30 | 
11 | Cc1cc(-c2nnc(Sc3c(F)c(F)c(C(=O)NO)c(F)c3F)n2C)nn1C |  |  |  |  |  |  | 5.60 | 
12 | O=C(NO)c1ccc(Cc2nnc(-c3ccccc3)[nH]2)cc1 |  |  |  |  |  |  | 8.30 | 
13 | CCCCN(Cc1ccc(C(=O)NO)cc1)C(=O)Nc1ccccc1 [NEXTURASTAT A] |  |  | 6.40 |  | 100% | 40% |  | 
14 | Cn1c(Sc2c(F)cc(C(=O)NO)cc2F)nnc1-c1cccnn1 | 58% | < 6.00 | < 6.00 | 79% | 100% | 98% | 7.89 | Ratio IC50 [1]: 34; Ratio IC50 [2]: 33; inhibition (INH) (Histone deacetylase): Active; Ratio IC50 [5]: 15; Ratio IC50 [6]: 372; Ratio IC50 [7]: 16; Ratio IC50 [10]: 34; Ratio IC50 [11]: 278
15 | O=C(NO)c1ccc(-c2nnc(-c3ccccc3)o2)cc1 |  |  |  |  |  |  | 6.18 | 
16 | Cn1c(Cc2ccc(C(=O)NO)cc2)nnc1-c1ccccc1 |  |  |  |  |  |  | 7.77 | 
17 | Cc1cc(-c2nnc(Sc3ccc(C(=O)NO)c(F)c3)n2C)nn1C |  |  |  |  |  |  | 5.65 | 
18 | O=C(NO)c1ccc(Cc2noc(-c3ccccc3)n2)cc1 |  |  |  |  |  |  | 8.22 | 
19 | Cn1c(Sc2c(F)cc(C(=O)NO)cc2F)nnc1-c1ncccc1F | 70% | < 6.00 | < 6.00 | 80% | 97% | 100% |  | Ratio IC50 [1]: 64; Ratio IC50 [2]: 53; inhibition (INH) (Histone deacetylase): Active; Ratio IC50 [5]: 38; Ratio IC50 [6]: 432; Ratio IC50 [7]: 24; Ratio IC50 [10]: 54; Ratio IC50 [11]: 250
20 | O=C(NO)c1ccc(CC(=O)N(CCO)c2ccccc2)cc1 |  |  | 5.08 |  | 79% | 45% |  | 
21 | O=C(NO)c1ccc(Sc2nnc(-c3ccccc3)s2)cc1 |  |  |  |  |  |  | 8.22 | 
22 | Cc1csc(Nc2ccc(C(=O)NO)cc2)n1 |  |  |  |  |  |  | 6.86 | 
23 | O=C(NO)c1ccc(Cn2cccn2)cc1 |  |  |  |  |  |  | 6.99 | 
24 | O=C(NO)c1ccc(Sc2ncc(-c3ccccc3)s2)cc1 |  |  |  |  |  |  | 7.21 | 
25 | O=C(NO)c1ccc(Cn2nnc(-c3ncccn3)n2)cc1 | 99% | < 6.00 | < 6.00 | 83% | 76% | 99% | 8.15 | Ratio IC50 [1]: 46; Ratio IC50 [2]: 665; Ratio IC50 [5]: 146; Ratio IC50 [6]: 111; Ratio IC50 [7]: 246; Ratio IC50 [10]: 721; Ratio IC50 [11]: 103
26 | O=C(NO)c1ccc(Sc2nnc(-c3ccccc3)o2)cc1 |  |  |  |  |  |  | 8.22 | 
27 | O=C(NO)c1ccc(Cn2nnnc2-c2ccccc2)cc1 |  |  |  |  |  |  | 8.05 | 
28 | O=C(CCCCCCNC(=O)c1cnc(N(c2ccccc2)c2ccccc2)nc1)NO [RICOLINOSTAT] |  |  | 6.70 |  | 100% | 91% |  | 
29 | O=C(NO)c1cc(F)c(Cn2nnc(-c3ccccn3)n2)c(F)c1 | 97% | < 6.00 | < 6.00 | 86% | 96% | 87% |  | Ratio IC50 [1]: 138; Ratio IC50 [2]: 139; Ratio IC50 [5]: 119; Ratio IC50 [6]: 1463; Ratio IC50 [7]: 102; Ratio IC50 [10]: 141; Ratio IC50 [11]: 696
30 | O=C(NO)c1cnc(NC2(c3ccccc3)CC2)nc1 |  |  | 5.47 |  | 100% | 12% |  | 
